Test results from patent US9695153B2, “Oligooxopiperazines for p53 reactivation” (New York University, priority 2013, dated 2017).

Experiments:
[1] = tested on: p53 transcriptional activity in UMSCC47 cells; assay: p53 transcriptional activity, Cignal p53 luciferase reporter; assay type: cell-based, human; details: 24 hours; for p53 activity, increase: vs vehicle
Procedure: Cells were transfected with 100 ng of Cignal p53 reporter (SABiosciences, Valencia, Calif.) using Lipofectamine 2000. Cignal p53 reporter contains tandem repeats of the p53 consensus transcriptional response element. After 48 hours, cells were washed with cold PBS, lysed in passive lysis buffer (Promega), and measured for Firefly/Renilla dual luciferase activities in a luminometer using the Dual-Light System (Applied Biosystems, Foster City, Calif.). […] to control for transfection efficiency. A modification to the protocol was used for compound treatment. UMSCC47 cells were transfected with 100 ng of Cignal p53 reporter. After 24 hours, cells were treated with vehicle, CH1iB (10 μM), cis-platinum (10 μM), or combination of CH1iB (10 μM) and cis-platinum (10 μM) and measured for Firefly/Renilla dual luciferase activities 24 hours post-treatment.

UMSCC47 cells [2] = assay: Cell proliferation (MTT); assay type: cell-based, human; details: for cell proliferation, single-agent: UMSCC47, 10 μM; for cell proliferation, in combination with cis-platinum: UMSCC47, 10 μM with cis-platinum 10 μM
Procedure: (§1) Cell proliferation was assessed using the MTT reagent (Roche Molecular Biochemicals, Nutley, N.J.) to detect metabolic active cells. Absorbance was measured at 570 nm in the Spectra Max 190 ELISA reader (Molecular Devices, Sunnyvale, Calif.) after overnight incubation. For clonogenic survival, 200 cells per well were plated in complete growth media and allowed to grow until visible colonies were formed (14 days). Cell colonies were fixed with cold methanol, stained with 0.25% crystal violet in 25% methanol, washed, and air dried. For apoptosis, cells were harvested, washed with cold PBS, and co-stained with Annexin V and propidium iodide according to the manufacturer's protocol (ApoAlert Annexin V-FITC Apoptosis Kit; Clontech). Apoptotic cells were analyzed using BD FACS Calibur (BD Biosciences Corporation, Franklin Lakes, N.J.) at The Ohio State University Comprehensive Cancer Center Analytical Cytometry Core.

[3] = biological target: T1, HPV16 E6-p300 association in UMSCC47 cells (Homo sapiens, UniProt Q09472); assay: Immunoprecipitation, HPV16 E6-p300 association; assay type: cell-based; details: UMSCC47, 10 μM, 24 hours
T1 construct: endogenous in cells; host or cells: UMSCC47 (HPV16-positive HNSCC cells)
T1 sequence (Q09472 whole entry): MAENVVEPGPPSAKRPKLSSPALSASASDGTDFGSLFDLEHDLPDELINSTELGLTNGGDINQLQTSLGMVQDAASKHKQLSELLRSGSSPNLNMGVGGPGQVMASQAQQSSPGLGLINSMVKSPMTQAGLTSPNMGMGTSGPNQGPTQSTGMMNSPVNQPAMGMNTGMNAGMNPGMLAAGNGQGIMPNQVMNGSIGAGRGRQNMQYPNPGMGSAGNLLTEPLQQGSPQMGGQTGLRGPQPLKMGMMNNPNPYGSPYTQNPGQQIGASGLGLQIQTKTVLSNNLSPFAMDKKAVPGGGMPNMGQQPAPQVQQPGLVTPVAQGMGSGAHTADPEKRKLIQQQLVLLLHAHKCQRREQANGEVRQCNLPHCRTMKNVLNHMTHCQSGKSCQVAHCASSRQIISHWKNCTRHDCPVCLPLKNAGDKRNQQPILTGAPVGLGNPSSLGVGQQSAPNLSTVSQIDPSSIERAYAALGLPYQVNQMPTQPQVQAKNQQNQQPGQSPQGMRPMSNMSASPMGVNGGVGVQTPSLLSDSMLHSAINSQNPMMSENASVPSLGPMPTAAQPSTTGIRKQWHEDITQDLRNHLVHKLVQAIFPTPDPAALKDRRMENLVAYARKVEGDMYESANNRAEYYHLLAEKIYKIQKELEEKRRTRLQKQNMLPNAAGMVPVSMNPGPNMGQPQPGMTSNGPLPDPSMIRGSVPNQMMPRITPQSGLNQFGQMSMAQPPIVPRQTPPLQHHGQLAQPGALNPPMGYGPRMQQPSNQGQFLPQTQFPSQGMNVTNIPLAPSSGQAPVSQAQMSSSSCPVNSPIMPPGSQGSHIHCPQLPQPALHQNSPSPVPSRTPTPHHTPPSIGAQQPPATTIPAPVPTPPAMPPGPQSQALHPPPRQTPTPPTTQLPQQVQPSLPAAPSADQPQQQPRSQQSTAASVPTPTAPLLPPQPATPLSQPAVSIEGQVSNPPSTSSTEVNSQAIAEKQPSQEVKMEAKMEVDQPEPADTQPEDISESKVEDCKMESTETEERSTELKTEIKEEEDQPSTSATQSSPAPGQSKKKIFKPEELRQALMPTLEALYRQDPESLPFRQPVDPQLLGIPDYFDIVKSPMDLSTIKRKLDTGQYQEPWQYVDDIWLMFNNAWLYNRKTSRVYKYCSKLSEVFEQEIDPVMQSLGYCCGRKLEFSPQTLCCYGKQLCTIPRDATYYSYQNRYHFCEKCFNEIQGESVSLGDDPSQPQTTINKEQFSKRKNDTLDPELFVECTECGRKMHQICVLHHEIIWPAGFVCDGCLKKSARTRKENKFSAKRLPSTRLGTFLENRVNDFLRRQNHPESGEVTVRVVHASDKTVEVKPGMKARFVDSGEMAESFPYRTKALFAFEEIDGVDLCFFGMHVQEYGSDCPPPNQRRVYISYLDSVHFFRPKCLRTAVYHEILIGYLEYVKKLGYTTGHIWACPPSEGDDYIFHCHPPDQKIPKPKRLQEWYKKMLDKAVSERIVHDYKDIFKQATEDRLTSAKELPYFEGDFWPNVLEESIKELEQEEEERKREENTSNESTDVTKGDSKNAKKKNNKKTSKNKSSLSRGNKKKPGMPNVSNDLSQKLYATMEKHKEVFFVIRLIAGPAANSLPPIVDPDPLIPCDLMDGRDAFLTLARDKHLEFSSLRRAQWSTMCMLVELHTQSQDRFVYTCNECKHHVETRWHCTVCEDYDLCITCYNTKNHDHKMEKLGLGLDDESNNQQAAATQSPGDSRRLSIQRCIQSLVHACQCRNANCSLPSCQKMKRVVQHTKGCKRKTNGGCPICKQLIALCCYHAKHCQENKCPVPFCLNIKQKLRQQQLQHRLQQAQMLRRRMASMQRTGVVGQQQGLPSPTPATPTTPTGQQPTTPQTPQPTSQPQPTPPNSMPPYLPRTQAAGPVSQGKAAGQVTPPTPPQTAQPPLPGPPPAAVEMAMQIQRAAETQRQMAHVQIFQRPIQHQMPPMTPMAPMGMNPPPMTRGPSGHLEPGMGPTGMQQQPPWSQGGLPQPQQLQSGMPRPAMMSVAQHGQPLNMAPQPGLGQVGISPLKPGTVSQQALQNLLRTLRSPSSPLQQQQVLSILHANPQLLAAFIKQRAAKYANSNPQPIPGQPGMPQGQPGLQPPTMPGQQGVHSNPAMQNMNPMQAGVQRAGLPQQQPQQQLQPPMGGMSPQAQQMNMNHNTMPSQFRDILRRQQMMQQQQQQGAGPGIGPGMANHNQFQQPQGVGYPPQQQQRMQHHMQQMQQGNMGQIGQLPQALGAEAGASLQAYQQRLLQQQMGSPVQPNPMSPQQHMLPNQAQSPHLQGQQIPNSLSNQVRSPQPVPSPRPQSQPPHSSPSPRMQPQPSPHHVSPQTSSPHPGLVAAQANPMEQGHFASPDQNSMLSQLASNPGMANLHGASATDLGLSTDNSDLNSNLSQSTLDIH
Procedure: Cells were lysed with NP buffer [50 mM Tris (pH 8.0), 150 mM NaCl, 0.5% deoxycholate, 0.1% SDS, and 1.0% NP-40] containing 1× Protease Inhibitor Cocktail (Roche, Switzerland) at 4° C. with gentle rocking for 15 min. The supernatant was pre-cleared to block nonspecific binding with 50 μL protein A/G Agarose beads (Pierce Biotechnology) that had been pre-washed with NP buffer before use. Equal amounts of anti-E6 antibody (Abcam), anti-p300 antibody (Millipore), or IgG antibody (Cell Signaling) were added to the respective samples. After 4 hours incubation at 4° C., 50 μL pre-washed protein A/G-agarose beads were added to each tube and immunoprecipitation was performed by rocking overnight at 4° C. The immunoprecipitated complexes were washed with NP buffer and then eluted using 2×SDS sample buffer. Eluted sample and 10% of input were resolved by SDS-PAGE for Western blot analysis with anti-E6, anti-p300, or anti-V5 antibodies.

[4] = tested on: IMR90 (human normal fibroblasts); assay: Cell proliferation (MTT); assay type: cell-based; details: for efficacy of cis-platinum on proliferation, combination: IMR90 fibroblasts, 10 μM with cis-platinum 10 μM; for cell proliferation, single-agent: human normal IMR90 fibroblasts, 10 μM
Procedure: as §1

[5] = tested on: p300, p53, p21, miR-34a, miR-200c expression in UMSCC74A cells; assay: Quantitative real-time PCR (TaqMan); assay type: cell-based, human; details: 10 μM, 24 hours
Procedure: (§2) Cells were extracted for total RNA using the TRIzol® reagent (Invitrogen) or TaqMan PreAmp Cells-to-CT kit (Applied Biosystems). Expression of p300, p53, p21, miR-34a and miR-200c were determined using the Applied Biosystems 7900HT Fast Real-Time PCR System with validated TaqMan gene expression assays (Applied Biosystems). p53, p300, and p21 expression were normalized to GADPH and miR-34a and miR-200c expression were normalized to RNU44 using the ΔΔCt method.

[6] = tested on: p300, p53, p21, miR-34a, miR-200c expression in UMSCC47 cells; assay: Quantitative real-time PCR (TaqMan); assay type: cell-based, human; details: UMSCC47, 10 μM, 24 hours
Procedure: as §2

UMSCC74A cells = assay: Cell proliferation (MTT); assay type: cell-based, human; details: for cell proliferation, single-agent: HPV-negative UMSCC74A, 10 μM; for efficacy of cis-platinum on proliferation, combination: UMSCC74A, 10 μM with cis-platinum 10 μM
Procedure: as §1

[7] = tested on: total and acetylated p53 in UMSCC47 cells; assay: Western blot of total and acetylated[K382] p53; assay type: cell-based, human; details: 24 hours; for p53 accumulation and acetylated p53 levels: UMSCC47, 10 μM
Procedure: (§3) Whole cell lysates were mixed with Laemmli loading buffer, boiled, separated by SDS-PAGE, and transferred to a nitrocellulose membrane. Subsequently, immunoblot analyses were performed using antibodies specific to V5 (Invitrogen), p53 (sc-126, Santa Cruz Biotechnology, Santa Cruz, Calif.), or acetylated[[…]]-p53 (2525, Cell Signaling Technology). The signal was developed using the SuperSignal Western Blotting Kit (Pierce, Rockford, Ill.).

[8] = tested on: total and acetylated p53 in UMSCC74A cells; assay: Western blot of total and acetylated[K382] p53; assay type: cell-based, human; details: 10 μM, 24 hours
Procedure: as §3

UMSCC47 cells [9] = assay: Apoptosis, Annexin V FACS; assay type: cell-based, human; details: UMSCC47, 10 μM, 24 hours, vs vehicle
Procedure: as §1

[10] = tested on: p53 transcriptional activity in UMSCC74A cells; assay: p53 transcriptional activity, Cignal p53 luciferase reporter; assay type: cell-based, human; details: HPV-negative UMSCC74A, 10 μM, 24 hours
UMSCC47 cells [11] = assay: Clonogenic survival; assay type: cell-based, human; details: UMSCC47, 10 μM, 14 days, vs vehicle
Procedure: as §1

UMSCC47 cells [12] = assay: Tumorsphere formation; assay type: cell-based, human; details: UMSCC47, 10 μM, 7 days, vs vehicle
Procedure: Cells were harvested and seeded in a serum-free defined medium consisting of KSF medium supplemented with epidermal growth factor, basic fibroblast growth factor, insulin, and hydrocortisone in low-attachment plates (Corning Incorporated, Corning, N.Y.) for tumorspheres. Tumorsphere formation efficiency was calculated as the number of tumorspheres (≧50 μm in diameter) formed in 7 days divided by the original number of cells seeded. Tumorsphere diameter was measured using NIS-Elements software.

[13] = HPV-positive UMSCC47 cells, 10 μM
[14] = UMSCC47, CH1iB 10 μM and cis-platinum 10 μM

Substance | p53 activity, increase [1, 13] [%] | cell proliferation, single-agent (UMSCC47 cells [2]) | cell proliferation, in combination with cis-platinum (UMSCC47 cells [2]) | association between E6 and p300 [3] | efficacy of cis-platinum on proliferation, combination [4] | cell proliferation, single-agent [4] | effect of cis-platinum on p53 activity, combination [1, 14] | expression of p300, p53, and p53-regulated genes [5] | p21, miR-34a, and miR-200c expression [6] | cell proliferation, single-agent (UMSCC74A cells) | efficacy of cis-platinum on proliferation, combination (UMSCC74A cells) | p53 accumulation and acetylated p53 levels [7] | effect of cis-platinum on p53 accumulation and acetylation, combination [7, 14] | p53 levels [8] | apoptosis, enhancement (UMSCC47 cells [9]) [%] | p53 activity [10] | clonogenic survival, reduction (inhibition) (UMSCC47 cells [11]) [%] | tumorsphere formation, reduction (UMSCC47 cells [12]) [%] | p53 activity [1, 13]
XELA*RAADQ-NH2 (ELXRAADQ; not fully specified; hydrogen bond surrogate crosslink; C-terminal amide; CH1iB-MUT) [specificity control for CH1iB in which one leucine residue is mutated to alanine] | 14 | no effect | no effect |  |  |  |  |  |  |  |  |  |  |  |  |  |  |  | 
XELA*RALDQ-NH2 (ELXRALDQ; not fully specified; hydrogen bond surrogate crosslink; C-terminal amide; CH1iB) [hydrogen bond surrogate helix mimic of HIF-1α targeting site B of p300 CH1] | 71 | inhibited | potentiated the anti-proliferative efficacy of cis-platinum | reduced | did not augment | had no effect | potentiated the effect of cis-platinum | unchanged | modest but significant increase | had no effect | did not augment | enhanced | potentiated the effect of cis-platinum | did not modulate | 353 | did not modulate | 35 | 20 | 
XTAA*DCEYNAR (TAXDCEYNAR; not fully specified; hydrogen bond surrogate crosslink; CH1iA) [hydrogen bond surrogate stabilized α-helical mimic of HIF-1α targeting site A of p300 CH1, reference compound] |  | inactive |  | not | did not augment | had no effect |  | unchanged |  | had no effect | did not augment | had no effect |  | did not modulate |  | did not modulate |  |  | had no effect
